Data taken from ChEMBL document CHEMBL3885861, “Open TG-GATES”.

Organism: Rattus norvegicus
Experiment: Open TG-GATES - Regimen: Single
Format: toxicity, organism-based, Sprague-Dawley
Parameters: regimen Single, gender Male, age 6 weeks
Settings: in vivo, po, 60 mg/kg, route gavage, dose level High; for APTT / Bas / Eos / Fbg / Hb / Ht / Lym / MCH / MCHC / MCV / Mono / Neu / PT / Plat / RBC / Ret / WBC: tissue Blood; for LIVER: tissue Liver; for A/G / ALP / ALT / AST / BUN / CRE / Ca / Cl / DBIL / GLC / IP / K / LDH / Na / PL / RALB / TBIL / TC / TG / TP / gamma-GTP: tissue Plasma

## O=[N+]([O-])c1ccc(O)c([N+](=O)[O-])c1 [2,4-DINITROPHENOL]
3 h
  TERMINAL_BW: 203.7 g
  APTT: 17.2 s
  Bas: 0%
  Eos: 0.4%
  Fbg: 232.6 mg/dL
  Hb: 12.5 g/dL
  Ht: 37.7%
  Lym: 79.6%
  MCH: 21.3 pg
  MCHC: 33.4%
  MCV: 63.9 fL
  Mono: 7%
  Neu: 13.2%
  PT: 12.4 s
  Plat: 127.8 x10_4/uL
  RBC: 590 x10_4/ul
  Ret: 8.6%
  WBC: 75.8 x10_2/uL
  LIVER: 8.6 g
  A/G: 2.6
  ALP: 1665.4 IU/L
  ALT: 39.6 IU/L
  AST: 95.6 IU/L
  BUN: 19 mg/dL
  CRE: 0.5 mg/dL
  Ca: 11.4 mg/dL
  Cl: 103.6 meq/L
  DBIL: 0.014 mg/dL
  GLC: 236.8 mg/dL
  IP: 11.4 mg/dL
  K: 4.5 meq/L
  LDH: 215 IU/L
  Na: 137 meq/L
  PL: 129.4 mg/dL
  RALB: 3.9 g/dL
  TBIL: 0.026 mg/dL
  TC: 77.6 mg/dL
  TG: 56.8 mg/dL
  TP: 5.4 g/dL
  gamma-GTP: 0 IU/L
6 h
  TERMINAL_BW: 206.8 g
  APTT: 16.1 s
  Bas: 0%
  Eos: 0.4%
  Fbg: 247.6 mg/dL
  Hb: 12.6 g/dL
  Ht: 38%
  Lym: 70.4%
  MCH: 21.8 pg
  MCHC: 33.3%
  MCV: 65.6 fL
  Mono: 9.4%
  Neu: 19.8%
  PT: 11.7 s
  Plat: 116.6 x10_4/uL
  RBC: 580.4 x10_4/ul
  Ret: 10%
  WBC: 114 x10_2/uL
  LIVER: 8.7 g
  A/G: 2.7
  ALP: 1501.4 IU/L
  ALT: 36.2 IU/L
  AST: 96.6 IU/L
  BUN: 20.6 mg/dL
  CRE: 0.6 mg/dL
  Ca: 11.4 mg/dL
  Cl: 106.6 meq/L
  DBIL: 0.012 mg/dL
  GLC: 245.4 mg/dL
  IP: 10.2 mg/dL
  K: 4.3 meq/L
  LDH: 245.4 IU/L
  Na: 138.6 meq/L
  PL: 150.4 mg/dL
  RALB: 4 g/dL
  TBIL: 0.026 mg/dL
  TC: 93.4 mg/dL
  TG: 31.4 mg/dL
  TP: 5.5 g/dL
  gamma-GTP: 0 IU/L
9 h
  TERMINAL_BW: 192.8 g
  APTT: 16.1 s
  Bas: 0%
  Eos: 0.5%
  Fbg: 244.8 mg/dL
  Hb: 12.6 g/dL
  Ht: 37.6%
  Lym: 74.5%
  MCH: 21.8 pg
  MCHC: 33.5%
  MCV: 65 fL
  Mono: 5.8%
  Neu: 19.2%
  PT: 11.9 s
  Plat: 117.2 x10_4/uL
  RBC: 579.2 x10_4/ul
  Ret: 8.8%
  WBC: 92.8 x10_2/uL
  LIVER: 7.3 g
  A/G: 2.5
  ALP: 1343 IU/L
  ALT: 32.2 IU/L
  AST: 87.2 IU/L
  BUN: 20 mg/dL
  CRE: 0.5 mg/dL
  Ca: 11.1 mg/dL
  Cl: 108 meq/L
  DBIL: 0.02 mg/dL
  GLC: 247.5 mg/dL
  IP: 9.7 mg/dL
  K: 4.7 meq/L
  LDH: 154.8 IU/L
  Na: 138.2 meq/L
  PL: 146.5 mg/dL
  RALB: 3.8 g/dL
  TBIL: 0.0225 mg/dL
  TC: 88.2 mg/dL
  TG: 56.2 mg/dL
  TP: 5.4 g/dL
  gamma-GTP: 0.5 IU/L
24 h
  TERMINAL_BW: 207.1 g
  APTT: 15.7 s
  Bas: 0%
  Eos: 0.8%
  Fbg: 263.6 mg/dL
  Hb: 13.3 g/dL
  Ht: 39.9%
  Lym: 71%
  MCH: 21.6 pg
  MCHC: 33.3%
  MCV: 64.7 fL
  Mono: 8%
  Neu: 20.4%
  PT: 11.7 s
  Plat: 123.2 x10_4/uL
  RBC: 617.2 x10_4/ul
  Ret: 8.5%
  WBC: 120.4 x10_2/uL
  LIVER: 10.7 g
  A/G: 2.4
  ALP: 1582.4 IU/L
  ALT: 35.6 IU/L
  AST: 73.8 IU/L
  BUN: 19.2 mg/dL
  CRE: 0.4 mg/dL
  Ca: 11.6 mg/dL
  Cl: 105.2 meq/L
  DBIL: 0.018 mg/dL
  GLC: 176.2 mg/dL
  IP: 6.4 mg/dL
  K: 4.6 meq/L
  LDH: 149.2 IU/L
  Na: 140 meq/L
  PL: 173 mg/dL
  RALB: 4 g/dL
  TBIL: 0.018 mg/dL
  TC: 93.4 mg/dL
  TG: 169.6 mg/dL
  TP: 5.7 g/dL
  gamma-GTP: 0.8 IU/L
